In ChEMBL document CHEMBL3879891, “Hydrazone compounds and their use” (2011):

Assays:
[1] = target: Transient receptor potential cation channel, subfamily M, member 5 (Rattus norvegicus) (UniProt A0A8I6AG64); assay: Activation of TRPM5 in Sprague-Dawley rat primary islets assessed as induction of 12 mM glucose-mediated insulin secretion after 3 hrs by ELISA
[2] = target: T1, Transient receptor potential cation channel subfamily M member 5 (Mus musculus) (UniProt Q9JJH7); assay: Activation of TRPM5 in SV40 expressing transgenic mouse Beta-TC-6 cells assessed as induction of 1 mM glucose-mediated insulin secretion after 2 hrs by ELISA
T1 sequence (whole entry): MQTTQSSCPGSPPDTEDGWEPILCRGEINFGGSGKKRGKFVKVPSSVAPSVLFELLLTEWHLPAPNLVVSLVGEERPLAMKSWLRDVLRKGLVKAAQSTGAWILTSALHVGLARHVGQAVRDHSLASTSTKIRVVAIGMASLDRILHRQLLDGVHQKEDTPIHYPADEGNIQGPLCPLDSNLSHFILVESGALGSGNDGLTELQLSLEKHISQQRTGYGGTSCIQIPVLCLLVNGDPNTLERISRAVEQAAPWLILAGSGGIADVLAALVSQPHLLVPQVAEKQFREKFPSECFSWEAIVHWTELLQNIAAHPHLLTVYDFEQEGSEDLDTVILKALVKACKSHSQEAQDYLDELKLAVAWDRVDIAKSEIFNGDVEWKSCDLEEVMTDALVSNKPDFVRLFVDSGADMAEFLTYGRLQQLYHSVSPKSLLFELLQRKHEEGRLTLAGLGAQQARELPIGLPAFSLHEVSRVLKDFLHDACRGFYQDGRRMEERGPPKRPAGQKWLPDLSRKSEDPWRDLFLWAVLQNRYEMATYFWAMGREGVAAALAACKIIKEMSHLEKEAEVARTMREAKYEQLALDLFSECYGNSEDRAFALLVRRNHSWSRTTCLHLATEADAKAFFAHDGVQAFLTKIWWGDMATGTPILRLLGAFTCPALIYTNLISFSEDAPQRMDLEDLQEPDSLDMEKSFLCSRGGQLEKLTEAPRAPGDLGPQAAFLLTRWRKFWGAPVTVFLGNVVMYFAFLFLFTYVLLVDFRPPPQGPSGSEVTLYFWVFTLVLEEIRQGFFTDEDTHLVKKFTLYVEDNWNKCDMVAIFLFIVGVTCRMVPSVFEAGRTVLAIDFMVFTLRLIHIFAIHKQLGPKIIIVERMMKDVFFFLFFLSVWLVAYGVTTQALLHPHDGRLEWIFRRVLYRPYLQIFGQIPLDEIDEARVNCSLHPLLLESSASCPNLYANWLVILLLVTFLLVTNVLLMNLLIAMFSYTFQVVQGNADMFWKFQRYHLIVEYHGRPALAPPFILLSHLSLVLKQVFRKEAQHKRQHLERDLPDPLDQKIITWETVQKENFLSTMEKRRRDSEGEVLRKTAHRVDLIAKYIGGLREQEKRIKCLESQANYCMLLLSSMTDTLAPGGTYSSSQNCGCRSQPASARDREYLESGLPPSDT

[3] = target: T1, Transient receptor potential cation channel subfamily M member 5 (Mus musculus); assay: Activation of TRPM5 in mouse GLUTag cells assessed as induction of 0.3 mM glucose-mediated GLP-1 secretion after 2 hrs by ELISA; type: cell-based

Measured: Activity

Transient receptor potential cation channel, subfamily M, member 5 (Rattus norvegicus), sequence (A0A8I6AG64 as listed by the source): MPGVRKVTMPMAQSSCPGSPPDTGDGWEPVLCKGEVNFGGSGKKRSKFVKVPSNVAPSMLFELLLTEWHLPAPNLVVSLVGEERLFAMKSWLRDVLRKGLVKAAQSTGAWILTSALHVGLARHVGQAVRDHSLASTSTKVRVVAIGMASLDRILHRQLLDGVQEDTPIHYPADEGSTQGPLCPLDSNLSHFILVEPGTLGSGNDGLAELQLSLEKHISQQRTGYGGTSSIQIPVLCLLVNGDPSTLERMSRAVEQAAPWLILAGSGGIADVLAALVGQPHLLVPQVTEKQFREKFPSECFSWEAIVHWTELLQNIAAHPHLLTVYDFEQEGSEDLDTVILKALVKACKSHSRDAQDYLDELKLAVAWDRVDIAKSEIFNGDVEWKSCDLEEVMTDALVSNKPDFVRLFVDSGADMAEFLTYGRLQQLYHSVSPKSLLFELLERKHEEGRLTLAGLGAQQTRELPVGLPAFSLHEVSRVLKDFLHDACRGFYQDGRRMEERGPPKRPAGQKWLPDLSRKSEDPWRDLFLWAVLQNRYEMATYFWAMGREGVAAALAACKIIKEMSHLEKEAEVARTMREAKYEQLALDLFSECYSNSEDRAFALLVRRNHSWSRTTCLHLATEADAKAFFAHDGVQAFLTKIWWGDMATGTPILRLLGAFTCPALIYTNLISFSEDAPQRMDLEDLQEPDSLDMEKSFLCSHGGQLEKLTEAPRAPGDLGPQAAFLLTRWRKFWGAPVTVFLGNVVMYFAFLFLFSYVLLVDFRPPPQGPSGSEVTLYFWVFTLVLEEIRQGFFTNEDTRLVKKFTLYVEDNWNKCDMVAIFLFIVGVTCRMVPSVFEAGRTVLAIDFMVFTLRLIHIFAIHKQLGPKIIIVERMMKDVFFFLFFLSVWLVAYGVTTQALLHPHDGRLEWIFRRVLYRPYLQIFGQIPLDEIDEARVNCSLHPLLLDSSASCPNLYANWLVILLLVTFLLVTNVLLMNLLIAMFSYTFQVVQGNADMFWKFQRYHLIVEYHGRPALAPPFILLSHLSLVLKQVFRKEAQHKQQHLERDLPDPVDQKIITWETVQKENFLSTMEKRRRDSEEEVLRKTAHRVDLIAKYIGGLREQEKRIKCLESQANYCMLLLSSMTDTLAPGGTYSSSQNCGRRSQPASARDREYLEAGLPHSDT

Cc1cc(/C=N/NC(=O)[C@@H]2C[C@H]2c2ccccc2)cc2cccnc12 (relative stereo)
active: [1] Dose-dependent effect | [2] Dose-dependent effect | [3] Dose-dependent effect
